Entries after “also recorded” stand apart in the source; their conditions may differ.
Experiments:
[1] = tested on: Sp1, VEGF, EGFR and PDGFA expression; assay: Expression of Sp1 and downstream molecules in H727 cells in vitro (Western/Northern blot); type: cell-based, human; conditions: 100 μg/ml BVZ, 5 days
Description: FIG. 16. […] H727 cells were incubated in medium or medium containing 0.36 μM MIT for 24 hours. mRNA was extracted for Northern blot analysis of Sp1 expression (A1). H727 and BON-1 cells were incubated in medium or medium containing 0-0.36 μM MIT for 1 to 24 hours. […] B. Chromatin was prepared from the cells and ChIP assay was performed as described in Materials and Methods.
FIG. 18. Effects of treatment with BVZ and MIT on the growth of and gene expression in human carcinoid cells in vitro. A. H727 and BON-1 cells were incubated for 5 days in a medium alone or a medium containing 25 to 100 μg/ml BVZ. The viable cells were counted. B. H727 cells were incubated for 5 days in a medium alone or a medium containing 100 μg/ml BVZ. Total protein lysates were harvested from the cell cultures, and the level of Sp1 and VEGF protein expression was determined using Western blot analysis. Equal protein-sample loading was monitored by probing the same membrane filter with an anti-GAPDH. C. […] Cytotoxicity was assessed using the MTT assay.
Western blot analysis. […] Equal protein-sample loading was monitored by probing the same membrane filter with an antibody against glyceraldehyde-3-phosphate dehydrogenase (GAPDH) (21). The probe proteins were detected using the Amersham enhanced chemiluminescence system according to the manufacturer's instructions. […]

[2] = tested on: Sp1 promoter; assay: Sp1 promoter luciferase reporter in PANC-1 cells; type: cell-based, human; conditions: 100 μg/ml BVZ or 0.1 μM MIT
Description: FIG. 15. Effects of treatment with BVZ and MIT on Sp1 recruitment into the Sp1 promoter in human pancreatic cancer cells in vitro and in vivo. A, schematic structures of the minimal Sp1 promoters. The nucleotide positions and sequences of Sp1-binding sites and polymerase chain reaction forward and reverse primers flanking those sites for ChIP assay are shown. B, Sp1 and VEGF promoter reporter constructs were transfected into PANC-1 cells in triplicate and incubated for 12 hours. The cells were then incubated for another 24 hours in a medium alone or a medium containing 100 μg/ml BVZ or 0.1 μM MIT. Total protein lysates were harvested from the cell cultures for measurement of Sp1 and VEGF promoter activity using a luciferase assay kit. The relative Sp1 and VEGF promoter activities were assessed, and the activity in treated groups was expressed as the fold change of that in their respective control groups. C and D, chromatin was extracted from (C) PANC-1 cells that were incubated in vitro for 2 days in a medium alone or a medium containing 100 μg/ml BVZ or 0.1 μM MIT and (D) tumors formed by PANC-1 cells in nude mice that received treatment as described in FIG. 2A. […]
Sp1 promoter constructs and analysis of Sp1 promoter activity. […] The reporter luciferase activity was measured 48 hours later using a luciferase assay kit (Promega, Madison, Wis.). […]

[3] = tested on: BxPC3 cells; assay: BxPC3 subcutaneous xenograft, tumor volume and body weight; type: in vivo, nude mice
Excerpt: FIG. 10. Dose-dependent antitumor effects of BVZ and MIT in xenograft models of human pancreatic cancer. […] C and D, the control mice and mice that received (C) BVZ and (D) MIT were weighed at the time of experiment termination, and the weights were expressed as the mean±SD.
FIG. 11. Synergistic antitumor effects of treatment with BVZ and MIT in xenograft models of human pancreatic cancer. […] C, representative tumor sizes in each group of BxPC3 model mice.
To determine whether this takes place, we treated pancreatic cancer in nude mice with BVZ, MIT, or a combination of the two (B+M). Specifically, we first performed dose-response experiments. We injected BxPC3 cells subcutaneously into nude mice.
Next, we performed experiments using both BxPC3 and PANC-1 tumor cell models in which we administered PBS, BVZ (25 μg), MIT (0.10 mg/kg), or B+M to a group of nude mice.

bevacizumab [BVZ]
expression of Sp1 and VEGF [1]: did not affect the expression of Sp1 or its major downstream molecule, VEGF
Sp1 promoter activity [2]: did not suppress Sp1 promoter activity
antitumor activity at low dose ([3]; BVZ 25 μg, MIT 0.10 mg/kg, or B+M): slight antitumor effects; also recorded: marginal antitumor activity
antitumor activity, dose-response ([3]; BVZ 25, 50, 100 μg, MIT 0.1, 0.2, 0.4 mg/kg, i.p. twice a week): suppressed human pancreatic cancer growth
body weight ([3]; BVZ alone, 25-100 μg): no discernable effect on body weight

Source: US20080274121A1, “Inhibition of Angiogenesis by Mithramycin” (priority 2007, published 2008)
